Source: patent publication US6572896B1, “Methods for inhibiting cell motility” (A.T. Still University of Health Sciences, priority 1998, dated 2003)
“And” between values parts separate entries of the source, which are not always exact repeats. Equal values may be shown once. Read-outs that look alike come from different tables or passages of the source. Marks after values point to notes of the source that are not given here.

Key:
[1] = test system: A2058 human melanoma cells; conditions: cited from earlier work
B16F10 melanoma cells [2] = test: Motility assay in blind-well migration chambers with gelatin-coated filter; format: cell-based; conditions: for Motility with Verapamil (mean number of cells per filter): n = 2 filters
B16F10 melanoma cells [3] = test: Microscopic examination of cell morphology; format: cell-based; conditions: 4 hours
Protocol: Cell morphology was examined under conditions that were used in the motility assays. B16F10 melanoma cells were cultured directly on gelatin coated glass cover slips (0.1% gelatin for 2 hours and then air dried) for 24 hours under standard cell culture conditions. Culture media was then removed and the cells were washed twice with phosphate buffered saline (PBS) before being exposed to either 0.54 mM, 5.4 mM, or 54 mM K^+ in iso-osmotic saline solutions that were based on the electrolyte composition of RPMI-1640 media. Some solutions also contained GdCl3 or TbCl3 in a concentration of 20 μM. The cells were incubated at 5% CO2 and 37° C. for 4 hours before cells were photographed using an Olympus (IMT-2) inverted microscope.
In order to examine the effects of Gd^3+ and extracellular K^+ concentration on the morphology of the cells, B16F10 melanoma cells were grown under normal conditions on gelatin-coated glass coverslips. The cells were then washed twice with PBS and placed in solutions containing the following concentrations of K^+ and Gd^3+ for exposure periods of 4 hours: […]

B16F10 cells [4] = test: Trypan blue exclusion assay (cell viability)
Protocol: A test was run to determine the toxicity of Gd^3+ on cells when exposed for seven hours. B16F10 cells were incubated for 12 hours with Gd^3+ at a concentration of 20 μM in the RPMI-E2 solution. A different batch of B16F10 cells were incubated for 12 hours without Gd^3+ in the RPMI-E2 solution. The cells were then examined with a Trypan blue exclusion assay.

[5] = test system: voltage-gated channels that control quantal neurotransmitter release; conditions: Gd^3+ up to 100 μM; cited from earlier work
B16F10 cells [6] = test: Cell growth after 12 hour Gd^3+ exposure and washout; format: cell-based; conditions: Gd^3+ 20 μM in RPMI-E2 12 hours, washed, then growth medium without Gd^3+
Protocol: The potential long term effects of Gd^3+ on cell growth were determined. […] The cell growth was observed after the Gd^3+ was washed from the cells.

[7] = Gd^3+ 20 μM in RPMI-E2, 12 hours
[8] = GdCl3 20 μM, RPMI-E2, normal K^+ and Ca^2+, seven hours, two independent runs

[Cl-].[Cl-].[Co+2] [CoCl2]
inhibition of tumor cell motility [1]: completely ineffective | inhibition of cell motility (B16F10 melanoma cells [2]): approximately 87% | Motility (mean number of cells per filter) (B16F10 melanoma cells [2]; 2 mM): 43 ± 4 cells per filter

bFGF: Basic fibroblast growth factor used to enhance motility
Motility (mean number of cells per filter) (B16F10 melanoma cells [2]; bFGF 25 ng/ml in serum free RPMI-1640 in top well): 180 ± 30 cells per filter | increase in the motility of melanoma cells (B16F10 melanoma cells [2]; bFGF 25 ng/ml in serum free RPMI-1640 vs no bFGF): three-fold increase

COc1ccc(CCN(C)CCCC(C#N)(c2ccc(OC)c(OC)c2)C(C)C)cc1OC (centres unmarked) [Verapamil, verapamil, reference compound]
Motility with Verapamil (mean number of cells per filter) (B16F10 melanoma cells [2]; verapamil 100 μM, 0.5 mM K^+): 1116 cells per filter | Motility with Verapamil (mean number of cells per filter) (B16F10 melanoma cells [2]; verapamil 100 μM, 5 mM K^+): 434^b cells per filter and 519 cells per filter | Motility with Verapamil (mean number of cells per filter) (B16F10 melanoma cells [2]; verapamil 100 μM, 50 mM K^+): 1100 cells per filter | effect on motility (B16F10 melanoma cells [2]; verapamil 100 μM, control, high K^+ and low K^+ conditions): did not reduce motility in a way corresponding to the reduction produced by Gd^3+ and Co^2+

[Cl][Gd]([Cl])[Cl] [GdCl3]
cell morphology (B16F10 melanoma cells [3]; 20 μM Gd^3+, low K^+ (0.54 mM)): rounded and flattened cells with prominent vacuoles | cell morphology (B16F10 melanoma cells [3]; 20 μM Gd^3+, normal K^+ (5.4 mM)): larger, rounded cells devoid of pseudopodia | cell morphology (B16F10 melanoma cells [3]; 20 μM in bathing solution): the cells had flattened and spread further | cells stained blue (B16F10 cells [4]; [7]): Less than 1% | viability versus cells not treated (B16F10 cells [4]; [7]): no difference in viability | Trypan Blue exclusion of vacuolated cells (membrane integrity) (B16F10 cells [4]; after 20 μM Gd^3+, low K^+, 4 hours): vacuolated cells excluded dye | effect on voltage-gated channels [5]: no effect | effect on cell growth after washout (B16F10 cells [6]): No obvious inhibitory effect on cell growth | Motility (mean number of cells per filter) (B16F10 melanoma cells [2]; Gd 20 μM, K^+ 0.54 mM (RPMI-E2 low K^+)): 240 ± 40^b cells per filter | Motility (mean number of cells per filter) (B16F10 melanoma cells [2]; Gd 20 μM, K^+ 54.0 mM (RPMI-E2 high K^+)): 113 ± 10 cells per filter | inhibition of cell motility (B16F10 melanoma cells [2]; GdCl3 20 μM, High Ca^2+ HEPES Ringer solution (Example 1)): 71% | Motility (mean number of cells per filter) (B16F10 melanoma cells [2]; GdCl3 20 μM, High Ca^2+ HEPES Ringer solution, 2 h preincubation + 5 h assay, bFGF): 95 ± 6 cells per filter | Motility (mean number of cells per filter) (B16F10 melanoma cells [2]; [8]): 33 ± 6 cells per filter and 50 ± 10 cells per filter | reduction of motility (B16F10 melanoma cells [2]; [8]): 73% and 75% | inhibition of cell motility (B16F10 melanoma cells [2]; Gd^3+ 20 μM, 0.54 mM K^+): 83% | inhibition of cell motility (B16F10 melanoma cells [2]; Gd^3+ 20 μM, 54 mM K^+): 90.5%

[K+] [K^+]
cell morphology (B16F10 melanoma cells [3]; high K^+ (54 mM), no Gd^3+): rounder and exhibited pseudopodia that appeared blunted | cell morphology (B16F10 melanoma cells [3]; low K^+ (0.54 mM), no Gd^3+): slightly more cells were observed with distinct lamellipodia | Motility (mean number of cells per filter) (B16F10 melanoma cells [2]; K^+ 0.54 mM, absence of Gd): 1387 ± 103^b cells per filter | Motility (mean number of cells per filter) (B16F10 melanoma cells [2]; K^+ 2.75 mM, absence of Gd): 1164 ± 1006 cells per filter | Motility (mean number of cells per filter) (B16F10 melanoma cells [2]; K^+ 3.87 mM, absence of Gd): 591 ± 40 cells per filter | Motility (mean number of cells per filter) (B16F10 melanoma cells [2]; K^+ 5.4 mM (normal, RPMI-E2), absence of Gd): 475 ± 20 cells per filter | Motility (mean number of cells per filter) (B16F10 melanoma cells [2]; K^+ 10.0 mM, absence of Gd): 578 ± 15 cells per filter | Motility (mean number of cells per filter) (B16F10 melanoma cells [2]; K^+ 16.25 mM, absence of Gd): 494 ± 49 cells per filter | Motility (mean number of cells per filter) (B16F10 melanoma cells [2]; K^+ 22.0 mM, absence of Gd): 558 ± 25 cells per filter | Motility (mean number of cells per filter) (B16F10 melanoma cells [2]; K^+ 27.5 mM, absence of Gd): 471 ± 57 cells per filter | Motility (mean number of cells per filter) (B16F10 melanoma cells [2]; K^+ 35.0 mM, absence of Gd): 646 ± 65 cells per filter | Motility (mean number of cells per filter) (B16F10 melanoma cells [2]; K^+ 54.0 mM, absence of Gd): 1188 ± 50 cells per filter

[Cl][Tb]([Cl])[Cl] [Tb^3+, TbCl3]
cell morphology (B16F10 melanoma cells [3]; 20 μM in bathing solution): the cells had flattened and spread further

[Ca+2] [Ca^2+]
increase in the motility of the cells (B16F10 melanoma cells [2]; elevated Ca^2+ (4 mM) vs normal (0.4 mM)): ~20% | Motility (mean number of cells per filter) (B16F10 melanoma cells [2]; extracellular Ca^2+ 0.4 mM (RPMI-E, normal), no bFGF): 78 ± 4^b cells per filter | Motility (mean number of cells per filter) (B16F10 melanoma cells [2]; extracellular Ca^2+ 4.0 mM (RPMI-E4Ca, elevated), no bFGF): 100 ± 6 cells per filter
